The source of these data is ChEMBL document CHEMBL1155158, “Early bactericidal activity of high-dose rifampin in patients with pulmonary tuberculosis evidenced by positive sputum smears” (Antimicrob Agents Chemother, 2007).

Series [1] concerns Homo sapiens. Description: AUC (0 to infinity) in Mycobacterium tuberculosis infected patient at 3 mg/kg. Also on record: time infinity, dose 3 mg/kg. The note with it: in vivo. Type of series: ADME, organism-based, Plasma.
Series [2] can be described thus: clinical. The note with it: human, in vivo, 6 mg/kg.
Description: Cmax in Mycobacterium tuberculosis infected patient at 6 mg/kg
Series [3] can be described thus: clinical. The following applies: human, in vivo, po, 20 mg/kg.
Description: Cmax in Mycobacterium tuberculosis infected patient at 20 mg/kg, po administered daily for 5 days
Series [4] is described as follows: clinical. The note with it: human, in vivo, 3 mg/kg.
Description: Cmax in Mycobacterium tuberculosis infected patient at 3 mg/kg
Series [5] concerns Mycobacterium tuberculosis. Description: Antimycobacterial activity against Mycobacterium tuberculosis infected patient assessed as sputum bacterial count at 600 mg, po after 2 days. Type of series: functional.
Series [6] deals with Mycobacterium tuberculosis. Put plainly: Antimycobacterial activity against Mycobacterium tuberculosis infected patient assessed as sputum bacterial count at 20 mg/kg, po administered daily for 5 days. Type of series: functional.
Series [7] is described as follows: Tmax in Mycobacterium tuberculosis infected patient at 6 mg/kg. Type of series: ADME, organism-based. Also on record: dose 6 mg/kg. The following applies: human, in vivo.
Series [8] can be described thus: Tmax in Mycobacterium tuberculosis infected patient at 3 mg/kg. Type of series: ADME, organism-based. Details: dose 3 mg/kg. The following applies: human, in vivo.
Series [9] relates to Mycobacterium tuberculosis. Description: Antimycobacterial activity against Mycobacterium tuberculosis infected patient assessed as sputum bacterial count at 20 mg/kg, po administered daily for 2 days. Type of series: functional.
Series [10] in a line: Tmax in Mycobacterium tuberculosis infected patient at 20 mg/kg, po administered daily for 5 days. Type of series: ADME, organism-based. Details: dose 20 mg/kg, route oral. The following applies: human, in vivo.
A short description of series [11]: Tmax in Mycobacterium tuberculosis infected patient at 12 mg/kg. The note with it: human, in vivo. Details: dose 12 mg/kg. Type of series: ADME, organism-based.
The nature of series [12]: clinical. The note with it: human, in vivo, 12 mg/kg.
Description: Cmax in Mycobacterium tuberculosis infected patient at 12 mg/kg
Series [13] deals with Homo sapiens. Description: AUC (0 to infinity) in Mycobacterium tuberculosis infected patient at 6 mg/kg. Type of series: ADME, organism-based, Plasma. Also on record: time infinity, dose 6 mg/kg. The note with it: in vivo.

As a reminder, the Cmax is the maximum level reached in the sampled fluid or tissue. Usually Tmax stands for the time from dosing to the highest level.

With `CO[C@H]1/C=C/O[C@@]2(C)Oc3c(C)c(O)c4c(O)c(c(/C=N/N5CCN(C)CC5)c(O)c4c3C2=O)NC(=O)/C(C)=C\C=C\[C@H](C)[C@H](O)[C@@H](C)[C@@H](O)[C@@H](C)[C@H](OC(C)=O)[C@@H]1C` [RIFAMPIN], the AUC stood at 13.1 µg/mL in the series on Homo sapiens [1] and 24.5 µg/mL in the series with Homo sapiens [13]. Also, the peak concentration (Cmax) amounted to 3190 ng/mL in “clinical [2]”, 2530 ng/mL in “clinical [4]” and 13000 ng/mL in “clinical [12]”. This compound returned a Cmax at 120 h in the series “clinical [3]” of 14000 ng/mL. Besides, the log10CFU/ml is recorded as 0.221 in series [5], 0.3 in series [6] and 0.44 in [9]. Moreover, the Tmax in series [7] is 3.67 h; in series [8] it was 3.12 h; in series [10], 3.27 h; in series [11] it was 2.5 h.
